# Source: ChEMBL document CHEMBL1201862, “PubChem BioAssay data set” (2004)
#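 Following 48 hours of exposure in 96-well plates, responses at five concentrations were used to interpolate endpoints linearly. At the GI50, growth is halved.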 Activity calls are given as the source filed them. Cut-off read from the data, not from the text of the source: active = GI50 up to about 1.1 µM and inactive = higher.
# What was measured:
# Assay in all cases: DTP human tumour cell line panel, 48 h
# OVCAR-8 = test system: OVCAR-8
# M14 = test system: M14
# KM-20L2 = test system: KM-20L2
# HT-29 = test system: HT-29
# HOP-92 = test system: HOP-92
# K562 = test system: K562
# NCI-H23 = test system: NCI-H23
# CCRF-CEM = test system: CCRF-CEM
# A549 = test system: A549
# NCI-H522 = test system: NCI-H522
# RXF 393 = test system: RXF 393
# TK-10 = test system: TK-10
# A498 = test system: A498
# SF-268 = test system: SF-268
# HCT-116 = test system: HCT-116
# SNB-75 = test system: SNB-75
# SR = test system: SR
# COLO 205 = test system: COLO 205
# BT-549 = test system: BT-549
# T47D = test system: T47D
Compound,GI50 (OVCAR-8),GI50 (M14),GI50 (KM-20L2),GI50 (HT-29),GI50 (HOP-92),GI50 (K562),GI50 (NCI-H23),GI50 (CCRF-CEM),GI50 (A549),GI50 (NCI-H522),GI50 (RXF 393),GI50 (TK-10),GI50 (A498),GI50 (SF-268),GI50 (HCT-116),GI50 (SNB-75),GI50 (SR),GI50 (COLO 205),GI50 (BT-549),GI50 (T47D)
CSC(=S)N(C)c1nc(N(C)C)s[s+]1,> 100 µM (inactive),> 100 µM (inactive),> 100 µM (inactive),> 100 µM (inactive),> 100 µM (inactive),> 100 µM (inactive),> 100 µM (inactive),> 100 µM (inactive),51.5 µM (inactive),> 100 µM (inactive),> 100 µM (inactive),> 100 µM (inactive),44.4 µM (inactive),> 100 µM (inactive),> 100 µM (inactive),> 100 µM (inactive),> 100 µM (inactive),,,
Fc1nc(F)nc(-c2c3ccccc3c3n2CCS3)n1,,71.1 µM (inactive),> 100 µM (inactive),> 100 µM (inactive),39.4 µM (inactive),47.5 µM (inactive),> 100 µM (inactive),33.1 µM (inactive),> 100 µM (inactive),47.2 µM (inactive),91.2 µM (inactive),> 10 µM (inactive),30.8 µM (inactive),70.5 µM (inactive),65.5 µM (inactive),22.8 µM (inactive),37 µM (inactive),> 100 µM (inactive),,
Cc1cc(C)nc(NS(=O)(=O)c2ccc(Nc3c4ccc(Cl)cc4nc4c(C(=O)NCCN(C)C)cccc34)cc2)n1,> 100 µM (inactive),> 100 µM (inactive),> 100 µM (inactive),> 100 µM (inactive),78 µM (inactive),59.2 µM (inactive),> 100 µM (inactive),> 100 µM (inactive),> 100 µM (inactive),> 100 µM (inactive),> 100 µM (inactive),> 100 µM (inactive),> 100 µM (inactive),> 100 µM (inactive),> 100 µM (inactive),> 100 µM (inactive),55.7 µM (inactive),> 100 µM (inactive),,
CC(=O)OCc1cc(OC(C)=O)cnc1COC(C)=O,> 100 µM (inactive),> 100 µM (inactive),> 100 µM (inactive),> 100 µM (inactive),> 100 µM (inactive),> 100 µM (inactive),> 100 µM (inactive),> 100 µM (inactive),> 100 µM (inactive),> 100 µM (inactive),> 100 µM (inactive),> 100 µM (inactive),> 100 µM (inactive),> 100 µM (inactive),> 100 µM (inactive),> 100 µM (inactive),> 100 µM (inactive),> 100 µM (inactive),,
C/N=C(\NC(=S)N(C)C)N(C)C,> 100 µM (inactive),> 100 µM (inactive),> 100 µM (inactive),> 100 µM (inactive),> 100 µM (inactive),> 100 µM (inactive),> 100 µM (inactive),> 100 µM (inactive),> 100 µM (inactive),> 100 µM (inactive),> 100 µM (inactive),> 100 µM (inactive),> 100 µM (inactive),> 100 µM (inactive),> 100 µM (inactive),> 100 µM (inactive),> 100 µM (inactive),,,
Cn1c2ccccc2c(=O)c2c([N+](=O)[O-])ccc(NCCN)c21,7.19 µM (inactive),14 µM (inactive),10.1 µM (inactive),4.47 µM (inactive),6.76 µM (inactive),,10.7 µM (inactive),,11.9 µM (inactive),6.92 µM (inactive),9.62 µM (inactive),14.7 µM (inactive),16.5 µM (inactive),11.3 µM (inactive),3.73 µM (inactive),12.1 µM (inactive),20.1 µM (inactive),5.36 µM (inactive),,
O=C(O)CSc1nnc(/C=C/c2ccccc2)[nH]1,> 100 µM (inactive),> 100 µM (inactive),> 100 µM (inactive),> 100 µM (inactive),> 100 µM (inactive),> 100 µM (inactive),> 100 µM (inactive),> 100 µM (inactive),> 100 µM (inactive),> 100 µM (inactive),> 100 µM (inactive),> 100 µM (inactive),> 100 µM (inactive),> 100 µM (inactive),> 100 µM (inactive),> 100 µM (inactive),> 100 µM (inactive),> 100 µM (inactive),,
CCOc1ccc(/C=C/c2cc(OC)c(OC)c(OC)c2)cc1,3.9 µM (inactive),0.841 µM (active),0.82 µM (active),0.653 µM (active),10.8 µM (inactive),0.458 µM (active),2.92 µM (inactive),1.86 µM (inactive),1.08 µM (active),0.429 µM (active),0.347 µM (active),8.83 µM (inactive),0.439 µM (active),2.18 µM (inactive),0.561 µM (active),0.701 µM (active),2.46 µM (inactive),0.635 µM (active),,
O=C1C2c3[nH]c4ccccc4c3C3CCCCCC3C2C(=O)N1c1ccccc1 (configuration not stated),11.8 µM (inactive),15.9 µM (inactive),> 100 µM (inactive),> 57.7 µM (inactive),30.1 µM (inactive),> 55 µM (inactive),> 49.8 µM (inactive),9.57 µM (inactive),34.4 µM (inactive),37.7 µM (inactive),12.4 µM (inactive),35.3 µM (inactive),30.8 µM (inactive),39.2 µM (inactive),11.2 µM (inactive),3.44 µM (inactive),> 33.3 µM (inactive),> 25.8 µM (inactive),,
O=C1/C(=C/c2ccc(C(=O)O)cc2)CNC/C1=C\c1ccc(C(=O)O)cc1,> 100 µM (inactive),> 100 µM (inactive),> 100 µM (inactive),> 100 µM (inactive),> 100 µM (inactive),> 100 µM (inactive),> 100 µM (inactive),> 100 µM (inactive),> 100 µM (inactive),,> 100 µM (inactive),> 100 µM (inactive),> 100 µM (inactive),> 100 µM (inactive),> 100 µM (inactive),> 100 µM (inactive),> 100 µM (inactive),> 100 µM (inactive),,
O=C1c2ccccc2C(=O)c2c1ccc1conc21,1.66 µM (inactive),2.26 µM (inactive),15.4 µM (inactive),4.37 µM (inactive),1.07 µM (active),1.85 µM (inactive),1.36 µM (inactive),1.04 µM (active),4.95 µM (inactive),1.7 µM (inactive),3.08 µM (inactive),6.44 µM (inactive),11.9 µM (inactive),2.56 µM (inactive),1.52 µM (inactive),7.59 µM (inactive),1.36 µM (inactive),5.65 µM (inactive),1.91 µM (inactive),0.398 µM (active)
CN(C)CCNC(=O)c1ccc(C(=O)NCCN(C)C)c2nc3ccccc3cc12,0.571 µM (active),1.39 µM (inactive),0.568 µM (active),0.452 µM (active),1.41 µM (inactive),0.61 µM (active),1.71 µM (inactive),0.676 µM (active),0.45 µM (active),0.47 µM (active),0.762 µM (active),0.94 µM (active),1.15 µM (inactive),0.962 µM (active),0.301 µM (active),1.71 µM (inactive),0.399 µM (active),0.469 µM (active),,
COC(=O)C1CC(c2ccc(Cl)cc2)=NO1 (configuration not stated),> 100 µM (inactive),> 100 µM (inactive),> 100 µM (inactive),> 100 µM (inactive),> 100 µM (inactive),> 100 µM (inactive),> 100 µM (inactive),> 100 µM (inactive),> 100 µM (inactive),> 100 µM (inactive),,> 100 µM (inactive),> 100 µM (inactive),> 100 µM (inactive),> 100 µM (inactive),> 100 µM (inactive),> 100 µM (inactive),> 100 µM (inactive),,
CN1CCC(c2c(O)cc(O)c3c(=O)cc(-c4ccccc4Cl)oc23)C(O)C1 (configuration not stated),0.0352 µM (active),0.111 µM (active),0.217 µM (active),0.156 µM (active),0.0194 µM (active),0.259 µM (active),0.0557 µM (active),0.0271 µM (active),0.0607 µM (active),0.136 µM (active),< 0.0149 µM (active),0.219 µM (active),0.117 µM (active),0.0467 µM (active),< 0.01 µM (active),0.0219 µM (active),0.0247 µM (active),0.0811 µM (active),,
